Where two headings read alike, the source gives them in different places.
Key:
[1] = Transport of supinoxin in Caco-2 cells (bidirectional permeability); assay type: in vitro ADME; details: human
Method: The Caco-2 intestinal epithelial cell line (ATCC® HTB-37™) purchased from American Type Culture Collection (ATCC, Manassas, VA, USA) was cultured and maintained in Dulbecco’s modified Eagle medium (DMEM) containing 10% fetal bovine serum, 100 U/mL penicillin, and 0.1 mg/mL streptomycin under humidified atmosphere of air containing 5% CO2 at 37 °C. Caco-2 cells were seeded at a density of 6 × 10^4 cells/cm^2 onto polyethylene membranes of transwell plates (Corning Costar, Cambridge, MA, USA). The medium was replaced on alternate days after seeding, and cell monolayers were used for the transport assay after approximately 21 days of culture. Trans-epithelial electrical resistance (TEER) values of the Caco-2 monolayers were measured with an EVOM epithelial tissue voltmeter (World Precision Instruments, Sarasota, FL, USA), and cells with TEER greater than 300 Ω were used for the experiments. Cell monolayers were first rinsed three times with transport buffer (Hank’s balanced salt solution supplemented with 10 mM HEPES) and preincubated for 30 min at 37 °C. To measure the bidirectional transport of the compound, a transport buffer containing 1 µM supinoxin was added to the respective donor compartments (the apical and basolateral sides for absorptive and secretory transport assays, respectively). Samples (200 µL) were collected at 30, 60, 90, and 120 min, and an identical volume of fresh buffer was replenished. The samples were then subjected to LC–MS/MS analysis and concentrations of the samples were determined. After the final sampling from both compartments, we measured the TEER of the monolayers to ensure no possible adverse effects induced by the experimental procedures and then estimated the apparent permeability coefficient of supinoxin from the compound’s time-dependent accumulation (dQ/dt) in the receiver compartments using the following equation: Papp = dQ/dt × 1/(A × C0)(1) where dQ/dt is the rate of transport, A is the surface area of the filter, and C0 is the initial concentration in the donor chamber.

[2] = Unbound fraction in microsomal incubation mixture (Rapid Equilibrium Dialysis); assay type: in vitro ADME; details: rat, liver microsomes 0.5 mg protein/mL
Method: To determine the unbound fraction of supinoxin in the plasma, a protein binding study was carried out using the Rapid Equilibrium Dialysis (RED) method. Following the manufacturer’s protocol (Thermo Fisher Scientific, San Jose, CA, USA), supinoxin was added to a plasma aliquot to produce a final concentration of 1 µg/mL. A plasma aliquot containing supinoxin (200 µL) and buffer (350 µL) was added to the sample chamber and the buffer chamber, respectively. When necessary, supinoxin was added to the microsomal incubation mixture (0.5 mg of protein per mL in potassium phosphate buffer) to produce final concentrations of 1 µM. The plate was covered and agitated on an orbital shaker at approximately 250 rpm at 37 °C. Aliquots (25 µL) of the plasma and buffer were collected at 4, 8, 18, and 24 h, and the samples were subjected to LC–MS/MS analysis. The fraction of supinoxin bound to plasma protein was estimated as follows:Percent bound (%) = [1 − (concentration in buffer/concentration in plasma)] × 100%(5)

[3] = Metabolic stability in rat liver microsomes; assay type: in vitro ADME
Method: In these experiments, the metabolic stability of supinoxin in rat liver microsomes (BD Biosciences, San Jose, CA, USA) was determined. The microsomal reaction mixture comprised the follows: liver microsomal protein (final concentration of 0.5 mg protein per mL reaction mixture) and an NADPH regenerating solution (1.3 mM NADP+, 3.3 mM glucose-6-phosphate, 0.4 U/mL glucose-6-phosphate dehydrogenase, and 3.3 mM MgCl2) in a 100 mM potassium phosphate buffer with a pH of 7.4. After 5 min preincubation of the reaction mixture in a water bath at 37 °C, the reaction was initiated by the addition of a supinoxin solution to obtain a final concentration of 1 µM. Aliquots (50 µL) of the mixture were sampled at 5, 15, 30, and 60 min after the initiation of the reaction. The reaction was terminated by adding a stop solution (200 µL of ice-chilled acetonitrile) to the sample immediately after collection. After mixing by vortexing and centrifugation of the mixtures at 15,000× g for 5 min, an aliquot (150 µL) of the supernatant was analyzed by LC–MS/MS assay. In addition, the metabolic stability of supinoxin was determined in the presence of UDP glucuronic acid under similar reaction conditions, except that uridine 5′-diphosphoglucuronic acid was added instead of the NADPH regenerating solution. Finally, metabolic stability of supinoxin was tested in concentration range of 0.1–10 μM to confirm that the concentration used in the study (1 μM) was below the Km for the metabolic reaction. The amount of sample remaining was plotted against the reaction time to determine the metabolic rate constant of the reaction. Assuming that the substrate concentration was below the Km for the metabolic reaction, the intrinsic clearance was calculated as follows:(6) CLint= Aprotein×ke/fu,mic·Cprotein where Aprotein is the total amount of liver microsomal protein, ke is the metabolic rate constant of the reaction, fu,mic is the unbound fraction of the drug in the reaction mixture, and Cprotein is the microsomal protein concentration (mg/mL) in the reaction mixture. In this calculation, an Aprotein of 1790 mg of protein per kg for rats was used.
When necessary, the hepatic clearance of the compound was calculated using a well-stirred model as follows: (7) CLh= Q·CLint·fu,p/Q+CLint·fu,p/R where Q is the hepatic blood flow, fu,p is the unbound fraction of the drug in the plasma, and R is the blood-to-plasma partition ratio. In this calculation, a hepatic blood flow of 14.5 mL/min for 250 g rat was used, and the blood-to-plasma partition ratio was assumed to be 1.

[4] = cited from earlier work; for Plasma concentration, Mean: fasted male SD rats, intravenous 1 mg/kg, ref 15 (Table 1 footnote)
[5] = rats, intravenous, 1 mg/kg, Jeong, J.-W. et al., 2017

## COc1cc(OC)cc(N2CCN(C(=O)Nc3nc4cc(F)ccc4nc3OC)CC2)c1 [supinoxin, 1-(3,5-Dimethoxyphenyl)-4-[(6-Fluoro-2-Methoxyquinoxalin-3-yl) Aminocarbonyl] Piperazine]
[1]; Caco-2, Caco-2 cell monolayers, supinoxin 1 µM, read-out: apical to basolateral apparent permeability coefficient
  Papp A→B at 120 min, 1 µM: 18.5 ± 2.4 ×10⁻⁶ cm/s
[1]; Caco-2, PBPK input parameter, Determined, read-out: Caco-2 permeability
  Papp A→B at 120 min, 1 µM: 18.5 ×10⁻⁶ cm/s
[1]; Caco-2 cell monolayers
  efflux ratio at 120 min, 1 µM: 1.24
[1]; Caco-2 cell monolayers, supinoxin 1 µM, read-out: basolateral to apical apparent permeability coefficient
  Papp B→A at 120 min, 1 µM: 22.6 ± 1.8 ×10⁻⁶ cm/s
[2]; liver microsomal incubation mixture, 18 h incubation
  fraction unbound at 18 h, 1 µM: 0.623 ± 0.016
[2]; 4 h incubation
  fraction unbound at 4 h, 1 µM: 0.518 ± 0.025
[2]; 8 h incubation
  fraction unbound at 8 h, 1 µM: 0.57 ± 0.017
[2]; 24 h incubation
  fraction unbound at 24 h, 1 µM: 0.615 ± 0.046
[3]; pH 7.4, rat liver microsomes, NADPH, 1 µM, read-out: NADPH-dependent metabolic half-life
  half-life at 1 µM: 17.1 min
[3]; pH 7.4, rat liver microsomes, NADPH, 1 µM, read-out: intrinsic clearance (converted)
  CLint scaled at 1 µM: 233 mL/min/kg
[3]; rat liver microsomes, NADPH, 1 µM
  remaining amount at the end of the 60-min incubation: 12.7 ± 0.1 % of the initial
[3]; rat liver microsomes, UDPGA, 1 µM, 60 min
  remaining amount in UDPGA-dependent metabolic stability study: 92.2 ± 0.1%
[3]; rat liver microsomes, concentration ranges of 0.1–1 μM
  half-life versus concentration: remained constant
[3]; vs average clearance of 0.5–5 mg/kg intravenous administration
  hepatic clearance as share of the total in vivo clearance: 58.5%
[3]; well-stirred model, from rat liver microsomal incubation
  hepatic clearance: 7.38 mL/min/kg
[4]; 0.083 h
  Plasma concentration, Mean: 860.2 ng/mL
[4]; 0.25 h
  Plasma concentration, Mean: 682.2 ng/mL
[4]; 0.5 h
  Plasma concentration, Mean: 501.6 ng/mL
[4]; 1 h
  Plasma concentration, Mean: 292.4 ng/mL
[4]; 3 h
  Plasma concentration, Mean: 194.2 ng/mL
[4]; 7 h
  Plasma concentration, Mean: 52.3 ng/mL
[4]; 10 h
  Plasma concentration, Mean: 20.8 ng/mL
[4]; 24 h, BQL treated as 0
  Plasma concentration, Mean: 0.5 ng/mL
[4]; [5]
  AUCinf: 1780 ± 300 ng·h/mL
  AUClast: 1750 ± 320 ng·h/mL
  T1/2: 158 ± 23.4 min
  Vss: 2.04 ± 0.316 L/kg

Reference: paper PMC7998731, “Pharmacokinetic Characterization of Supinoxin and Its Physiologically Based Pharmacokinetic Modeling in Rats” (Pharmaceutics, 2021)
